As usually defined, the IC50 is the point on the concentration scale where inhibition reaches its midpoint.

T1 sequence (Q93009 whole entry): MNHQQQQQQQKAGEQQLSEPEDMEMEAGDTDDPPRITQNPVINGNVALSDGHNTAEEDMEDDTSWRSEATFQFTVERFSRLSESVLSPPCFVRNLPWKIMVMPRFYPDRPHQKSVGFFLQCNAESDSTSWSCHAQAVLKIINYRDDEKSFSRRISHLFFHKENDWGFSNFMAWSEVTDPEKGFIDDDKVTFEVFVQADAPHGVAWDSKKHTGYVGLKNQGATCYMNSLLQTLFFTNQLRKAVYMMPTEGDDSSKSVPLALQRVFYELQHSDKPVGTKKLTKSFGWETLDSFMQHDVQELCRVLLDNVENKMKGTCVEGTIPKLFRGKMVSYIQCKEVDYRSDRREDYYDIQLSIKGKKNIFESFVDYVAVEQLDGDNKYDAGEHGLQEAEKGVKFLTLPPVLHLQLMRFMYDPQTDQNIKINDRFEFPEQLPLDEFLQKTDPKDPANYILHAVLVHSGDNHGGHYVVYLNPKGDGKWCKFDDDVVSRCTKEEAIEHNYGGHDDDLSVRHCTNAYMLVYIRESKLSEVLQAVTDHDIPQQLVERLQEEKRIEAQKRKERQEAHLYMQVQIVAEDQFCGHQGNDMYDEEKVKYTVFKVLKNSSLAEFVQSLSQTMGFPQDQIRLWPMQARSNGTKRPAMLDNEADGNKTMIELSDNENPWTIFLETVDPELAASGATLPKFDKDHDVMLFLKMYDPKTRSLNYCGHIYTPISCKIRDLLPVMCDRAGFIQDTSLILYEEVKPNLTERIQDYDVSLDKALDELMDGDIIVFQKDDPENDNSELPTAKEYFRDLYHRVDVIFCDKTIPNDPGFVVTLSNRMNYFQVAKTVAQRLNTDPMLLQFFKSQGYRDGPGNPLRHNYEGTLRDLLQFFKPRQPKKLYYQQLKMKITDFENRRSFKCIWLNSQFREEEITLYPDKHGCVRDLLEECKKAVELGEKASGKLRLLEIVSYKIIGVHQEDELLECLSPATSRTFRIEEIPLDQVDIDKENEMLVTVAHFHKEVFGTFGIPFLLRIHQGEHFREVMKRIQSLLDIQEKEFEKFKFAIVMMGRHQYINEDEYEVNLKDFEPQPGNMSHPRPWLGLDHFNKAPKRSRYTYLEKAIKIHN

The first experiment has as its target T1, USP7, full-length, native C-Terminus (Homo sapiens, UniProt Q93009).
T1 construct: USP7, full-length, native C-Terminus, 0.2 nM
The experiment is described as follows: Biochemical USP7 assay with Ubiquitin-Rho110 substrate (USP7_Ub-Rho110 Fluor). To be noted: no pre-incubation; 1 hour reaction at room temperature; read-out: USP7 Ub-Rho110 Fluor (IC50). How it is done:
(§1) Biochemical USP7 assays using Ubiquitin-Rho110 as a substrate: The final assay conditions were as follows: The Reaction Buffer consisted of: 50 mM Tris (pH 7.5), 0.01% (v/v) Triton X-100, 2.5 mM Dithiothreitol, 0.1% (w/v) bovine gamma globulin (Sigma cat #G5009-25G); USP7, full-length, native C-Terminus, 0.2 nM; the substrate, Ubiquitin-Rho110 (Boston Biochem cat #U-555), 1 uM. Reactions were carried out for 1 hour at room temperature, in black 20 μL volume polystyrene ProxiPlate 384 F Plus® (PerkinElmer cat #6008260).
(§2) Test compounds, including a control USP7 inhibitor (Ub-aldehyde, Boston Biochem cat #U-201) were serially diluted in DMSO, in 384 well clear V-bottom polypropylene plates (Greiner cat #781280). Compounds in DMSO were diluted 10-fold into Reaction Buffer, to achieve 3-fold the final desired concentration. The substrate, Ubiquitin-Rho110 (Boston Biochem cat #U-555), was prepared at 3 μM (3-fold the final concentration) and 5 ul was dispensed into the reaction plate. 5 ul of the compounds (diluted in Reaction Buffer at 3-fold the final concentration) were transferred to the reaction plate. 5 ul of 0.6 nM USP7 (diluted in Reaction Buffer at 3-fold the final concentration) was transferred to the reaction plate to initiate the reaction. After 1 hour incubation at room temperature the reaction was quenched by the addition of 5 ul of 400 mM acetic acid. The enzymatic product was measured by quantifying the fluorescence signal of cleaved Rhodamine-110 using excitation at 485 nm and emission at 535 nm. When pre-incubation of USP7 with compounds was required, the order of addition of reagents was modified to pre-mix the compounds with USP7 (with a 1 hour incubation period), prior to the addition of the substrate and the initiation of the reaction period. Percentage inhibition values were calculated relative to a no enzyme control and a uninhibited enzyme control. Curve fitting and IC50 calculations were carried out using Genedata Screener software.
As to `CCc1c(-c2ccc(O)cc2F)cnc(N)c1-c1ccc(O)cc1` [Compound 7, 4-[6-amino-4-ethyl-5-(4-hydroxyphenyl)-3-pyridyl]-3-fluoro-phenol], the concentration for half-maximal inhibition (IC50) stood at 4.5 µM. Take `Nc1ncc(-c2ccc(O)cc2)c(C2CC2)c1-c1ccc(O)cc1` [Compound 9, 4-[6-amino-4-cyclopropyl-5-(4-hydroxyphenyl)-3-pyridyl]phenol]: the concentration for half-maximal inhibition (IC50) was found to be 56.6 µM. The same measure, in the same setting: as for `CCc1c(-c2cccc(CN(C)C)c2)cnc(N)c1-c1ccc(O)cc1` [Compound 12, 4-[2-amino-5-[3-[(dimethylamino)methyl]phenyl]-4-ethyl-3-pyridyl]phenol], the figure is 23.9 µM; as for `CCCc1c(-c2ccc(O)cc2)cnc(N)c1-c1ccc(O)cc1` [Compound 6, 4-[6-amino-5-(4-hydroxyphenyl)-4-propyl-3-pyridyl]phenol], 35.2 µM; as for `Cc1c(-c2ccc(O)cc2)cnc(N)c1-c1ccc(O)cc1` [Compound 1, 4-[6-amino-5-(4-hydroxyphenyl)-4-methyl-3-pyridyl]phenol], 7.7 µM. On the same count and under the same terms, as for `CC(C)c1c(-c2ccc(O)cc2)cnc(N)c1-c1ccc(O)cc1` [Compound 3, 4-[6-amino-5-(4-hydroxyphenyl)-4-isopropyl-3-pyridyl]phenol], the figure is 197 µM.

For a further experiment, the target named is T1, USP7, full-length, native C-Terminus. The experiment is described as follows: Biochemical USP7 assay with Ubiquitin-Rho110 substrate, compounds pre-incubated with USP7 (USP7_Ub-Rho preInc). Particulars: compounds pre-mixed with USP7, 1 hour incubation, before substrate; read-out: USP7 Ub-Rho preInc (IC50). How it is done:
as §1, §2
As to `CCc1c(-c2cncnc2)cnc(N)c1-c1ccc(O)cc1` [Compound 32, 4-(2-amino-4-ethyl-5-pyrimidin-5-yl-3-pyridyl)phenol], the 50% inhibitory concentration (IC50) was found to be 69.9 µM. The same measure, in the same setting: the value for `CCc1c(-c2cccc(C(=O)N3CCCC3)c2)cnc(N)c1-c1ccc(O)cc1` [Compound 64, [3-[6-amino-4-ethyl-5-(4-hydroxyphenyl)-3-pyridyl]phenyl]-pyrrolidin-1-yl-methanone] was more than 63.3 µM; that for `CCc1c(-c2ccc3[nH]c(C)nc3c2)cnc(N)c1-c1ccc(O)cc1` [Compound 86, 4-[2-amino-4-ethyl-5-(2-methyl-1H-benzimidazol-5-yl)-3-pyridyl]phenol] was 13.5 µM. As for `CCc1c(-c2ccc(O)cc2)cnc(N)c1-c1ccc2[nH]ncc2c1` [Compound 87, 4-[6-amino-4-ethyl-5-(1H-indazol-5-yl)-3-pyridyl]phenol], the IC50 came out at 2.1 µM. For the compound `CCc1c(-c2ccc(O)cc2)cnc(N)c1-c1ccc(NS(C)(=O)=O)cc1` [Compound 30, N-[4-[2-amino-4-ethyl-5-(4-hydroxyphenyl)-3-pyridyl]phenyl]methanesulfonamide], the IC50 is 19.6 µM. The same measure, in the same setting: as for `CCc1c(-c2ccc(C)nc2)cnc(N)c1-c1ccc(O)cc1` [Compound 35, 4-[2-amino-4-ethyl-5-(6-methyl-3-pyridyl)-3-pyridyl]phenol], the figure is 31.2 µM; as for `CCc1c(-c2ccc(C#N)nc2)cnc(N)c1-c1ccc(O)cc1` [Compound 62, 5-[6-amino-4-ethyl-5-(4-hydroxyphenyl)-3-pyridyl]pyridine-2-carbonitrile], 39.2 µM; as for `CCc1c(-c2ccc(NC(C)=O)nc2)cnc(N)c1-c1ccc(O)cc1` [Compound 75, N-[5-[6-amino-4-ethyl-5-(4-hydroxyphenyl)-3-pyridyl]-2-pyridyl]acetamide], 3.6 µM. For the compound `CCc1c(-c2ccccc2C)cnc(N)c1-c1ccc(O)cc1` [Compound 33, 4-[2-amino-4-ethyl-5-(o-tolyl)-3-pyridyl]phenol], the half-maximal inhibitory concentration (IC50) was more than 63.3 µM. The same measure, in the same setting: the value for `CCc1c(-c2cnn(CC(C)C)c2)cnc(N)c1-c1ccc(O)cc1` [Compound 71, 4-[2-amino-4-ethyl-5-(1-isobutylpyrazol-4-yl)-3-pyridyl]phenol] was 70.6 µM. Same read-out and setting: the value for `CCc1c(-c2ccc(F)cc2)cnc(N)c1-c1ccc(O)cc1` [Compound 34, 4-[2-amino-4-ethyl-5-(4-fluorophenyl)-3-pyridyl]phenol] was 19.9 µM. Still for that read-out and setting: the value for `CCc1c(-c2ccc(OC)cc2)cnc(N)c1-c1ccc(O)cc1` [Compound 53, 4-[2-amino-4-ethyl-5-(4-methoxyphenyl)-3-pyridyl]phenol] was more than 20 µM. For `CCc1c(-c2ccc(O)c(C(N)=O)c2)cnc(N)c1-c1ccc(O)cc1` [Compound 95, 5-[6-amino-4-ethyl-5-(4-hydroxyphenyl)-3-pyridyl]-2-hydroxy-benzamide], the concentration for half-maximal inhibition (IC50) was determined as 106 µM.

On to `CCc1c(-c2ccc(O)cc2)cnc(N)c1-c1ccc(O)c(C#N)c1` [Compound 72, 5-[2-amino-4-ethyl-5-(4-hydroxyphenyl)-3-pyridyl]-2-hydroxy-benzonitrile], for which the half-inhibitory concentration (IC50) is 12.5 µM. On to `CCc1c(-c2cccc(CN3CCOCC3)c2)cnc(N)c1-c1ccc(O)cc1` [Compound 82, 4-[2-amino-4-ethyl-5-[3-(morpholinomethyl)phenyl]-3-pyridyl]phenol], for which the IC50 is 18.2 µM.

Consider `CCc1c(-c2cccc(N)c2)cnc(N)c1-c1ccc(O)cc1` [Compound 90, 4-[2-amino-5-(3-aminophenyl)-4-ethyl-3-pyridyl]phenol], for which the 50% inhibitory concentration (IC50) was determined as 19.2 µM. The same measure, in the same setting: as for `CCc1c(-c2ccc(CNS(C)(=O)=O)cc2)cnc(N)c1-c1ccc(O)cc1` [Compound 70, N-[[4-[6-amino-4-ethyl-5-(4-hydroxyphenyl)-3-pyridyl]phenyl]methyl]methanesulfonamide], the figure is 34.4 µM; as for `CCc1c(-c2ccc(CO)cc2)cnc(N)c1-c1ccc(O)cc1` [Compound 55, 4-[2-amino-4-ethyl-5-[4-(hydroxymethyl)phenyl]-3-pyridyl]phenol], more than 20 µM; as for `CCc1c(-c2cccc(C(=O)N(C)C)c2)cnc(N)c1-c1ccc(O)cc1` [Compound 54, 3-[6-amino-4-ethyl-5-(4-hydroxyphenyl)-3-pyridyl]-N,N-dimethyl-benzamide], 161 µM. On the same count and under the same terms, the value for `CCc1c(-c2ccc(O)cc2)cnc(N)c1-c1cccc(NC(=O)OC(C)(C)C)c1` [Compound 31, tert-butyl N-[3-[2-amino-4-ethyl-5-(4-hydroxyphenyl)-3-pyridyl]phenyl]carbamate] was more than 20 µM; that for `CCc1c(-c2ccc(Cl)cc2)cnc(N)c1-c1ccc(O)cc1` [Compound 80, 4-[2-amino-5-(4-chlorophenyl)-4-ethyl-3-pyridyl]phenol] was 17.6 µM.

For `CCc1c(-c2ccc(O)cc2)cnc(NCC2CC2)c1-c1ccc(O)cc1` [Compound 40, 4-[6-(cyclopropylmethylamino)-4-ethyl-5-(4-hydroxyphenyl)-3-pyridyl]phenol], the half-maximal inhibitory concentration (IC50) stood at 19.9 µM.

Regarding `CCc1c(-c2ccc(O)cc2)cnc(N)c1-c1cccc(N2CCOCC2)c1` [Compound 22, 4-[6-amino-4-ethyl-5-(3-morpholinophenyl)-3-pyridyl]phenol], the IC50 is more than 63.3 µM. The same measure, in the same setting: as for `CCc1c(-c2ccc(O)cc2)cnc(N)c1-c1cccc(COC)c1` [Compound 24, 4-[6-amino-4-ethyl-5-[3-(methoxymethyl)phenyl]-3-pyridyl]phenol], the figure is more than 63.3 µM; as for `CCc1c(-c2ccc(O)cc2)cnc(N)c1-c1ccc2cn[nH]c2c1` [Compound 93, 4-[6-amino-4-ethyl-5-(1H-indazol-6-yl)-3-pyridyl]phenol], 13.8 µM; as for `CCc1c(-c2cccc(C(=O)NC(C)C)c2)cnc(N)c1-c1ccc(O)cc1` [Compound 69, 3-[6-amino-4-ethyl-5-(4-hydroxyphenyl)-3-pyridyl]-N-isopropyl-benzamide], more than 63.3 µM. On the same count and under the same terms, the value for `CCc1c(-c2ccc(C)cc2)cnc(N)c1-c1ccc(O)cc1` [Compound 36, 4-[2-amino-4-ethyl-5-(p-tolyl)-3-pyridyl]phenol] was 18.1 µM; that for `CCc1c(-c2ccc(C#N)c(F)c2)cnc(N)c1-c1ccc(O)cc1` [Compound 67, 4-[6-amino-4-ethyl-5-(4-hydroxyphenyl)-3-pyridyl]-2-fluoro-benzonitrile] was 45 µM.

In the case of `CCc1c(-c2ccc(O)cc2)cnc(N)c1-c1cccc(C#N)c1` [Compound 19, 3-[2-amino-4-ethyl-5-(4-hydroxyphenyl)-3-pyridyl]benzonitrile], the half-inhibitory concentration (IC50) is 9.9 µM.

Turning to `CCc1c(-c2ccc(C(=O)NC3CC3)cc2)cnc(N)c1-c1ccc(O)cc1` [Compound 65, 4-[6-amino-4-ethyl-5-(4-hydroxyphenyl)-3-pyridyl]-N-cyclopropyl-benzamide], the half-maximal inhibitory concentration (IC50) was 7.7 µM.

On to `CCc1c(-c2ccc(O)cc2)cnc(N)c1-c1ccc(F)c(F)c1` [Compound 18, 4-[6-amino-5-(3,4-difluorophenyl)-4-ethyl-3-pyridyl]phenol], for which the IC50 was more than 20 µM. The same measure, in the same setting: as for `CCc1c(-c2cccc(C(F)F)c2)cnc(N)c1-c1ccc(O)cc1` [Compound 74, 4-[2-amino-5-[3-(difluoromethyl)phenyl]-4-ethyl-3-pyridyl]phenol], the figure is 7.8 µM.

The values above are taken from US9573899B2, “USP7 inhibitor compounds and methods of use” (Genentech, Inc., priority 2015, dated 2017).
